Earlier results in patent publication US6034057A, “Peptide inhibitors of fibronectine” (Zeneca Limited, priority 1995, dated 2000).
Bridge positions count the residues as written; N and C are the ends. Ends that are not written are not given here. * marks the point of attachment. Acetyl(1-adamantyl) = O=C(CC12CC3CC(CC(C3)C1)C2)*

How the values were obtained:
[1] = biological target: αvβ3 (Homo sapiens, UniProt P05106+P06756)
[2] = tested on: fibronectin
[3] = biological target: αIIbβ IIIa (Homo sapiens, UniProt P05106+P08514)
[4] = tested on: fibronectin; remark: listed apart in the source
[5] = tested on: 120 kDa chymotryptic fragment of fibronectin

Chain of αvβ3 (P06756 31-889 limits assumed): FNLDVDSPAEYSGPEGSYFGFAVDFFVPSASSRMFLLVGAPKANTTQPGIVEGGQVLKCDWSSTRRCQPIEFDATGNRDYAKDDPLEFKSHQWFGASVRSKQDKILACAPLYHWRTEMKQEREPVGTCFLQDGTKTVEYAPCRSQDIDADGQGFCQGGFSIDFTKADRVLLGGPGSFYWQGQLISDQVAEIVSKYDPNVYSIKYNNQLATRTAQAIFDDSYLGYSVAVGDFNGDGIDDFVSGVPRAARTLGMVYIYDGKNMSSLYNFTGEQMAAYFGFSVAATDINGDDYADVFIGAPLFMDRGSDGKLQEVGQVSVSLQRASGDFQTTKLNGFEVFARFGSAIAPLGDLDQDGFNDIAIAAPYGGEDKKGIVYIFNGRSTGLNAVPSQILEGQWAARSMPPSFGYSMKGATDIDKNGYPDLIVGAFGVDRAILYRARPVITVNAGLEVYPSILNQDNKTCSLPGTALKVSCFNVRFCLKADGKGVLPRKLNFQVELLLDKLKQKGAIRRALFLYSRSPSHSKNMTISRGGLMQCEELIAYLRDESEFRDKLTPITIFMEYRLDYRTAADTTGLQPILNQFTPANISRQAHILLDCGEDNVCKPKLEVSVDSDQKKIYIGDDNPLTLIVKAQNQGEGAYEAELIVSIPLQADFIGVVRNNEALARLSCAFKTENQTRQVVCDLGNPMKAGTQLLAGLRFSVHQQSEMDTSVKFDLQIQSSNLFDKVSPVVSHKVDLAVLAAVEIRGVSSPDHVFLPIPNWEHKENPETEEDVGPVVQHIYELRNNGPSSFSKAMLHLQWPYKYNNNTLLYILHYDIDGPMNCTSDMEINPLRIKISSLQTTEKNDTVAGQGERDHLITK
Chain of αvβ3 (P06756 891-1048 partner limits assumed): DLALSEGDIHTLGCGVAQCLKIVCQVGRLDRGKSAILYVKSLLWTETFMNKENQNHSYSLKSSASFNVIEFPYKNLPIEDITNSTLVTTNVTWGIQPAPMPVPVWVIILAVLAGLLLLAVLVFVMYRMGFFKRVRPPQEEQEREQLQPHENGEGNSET
Chain of αvβ3 (P05106 27-788): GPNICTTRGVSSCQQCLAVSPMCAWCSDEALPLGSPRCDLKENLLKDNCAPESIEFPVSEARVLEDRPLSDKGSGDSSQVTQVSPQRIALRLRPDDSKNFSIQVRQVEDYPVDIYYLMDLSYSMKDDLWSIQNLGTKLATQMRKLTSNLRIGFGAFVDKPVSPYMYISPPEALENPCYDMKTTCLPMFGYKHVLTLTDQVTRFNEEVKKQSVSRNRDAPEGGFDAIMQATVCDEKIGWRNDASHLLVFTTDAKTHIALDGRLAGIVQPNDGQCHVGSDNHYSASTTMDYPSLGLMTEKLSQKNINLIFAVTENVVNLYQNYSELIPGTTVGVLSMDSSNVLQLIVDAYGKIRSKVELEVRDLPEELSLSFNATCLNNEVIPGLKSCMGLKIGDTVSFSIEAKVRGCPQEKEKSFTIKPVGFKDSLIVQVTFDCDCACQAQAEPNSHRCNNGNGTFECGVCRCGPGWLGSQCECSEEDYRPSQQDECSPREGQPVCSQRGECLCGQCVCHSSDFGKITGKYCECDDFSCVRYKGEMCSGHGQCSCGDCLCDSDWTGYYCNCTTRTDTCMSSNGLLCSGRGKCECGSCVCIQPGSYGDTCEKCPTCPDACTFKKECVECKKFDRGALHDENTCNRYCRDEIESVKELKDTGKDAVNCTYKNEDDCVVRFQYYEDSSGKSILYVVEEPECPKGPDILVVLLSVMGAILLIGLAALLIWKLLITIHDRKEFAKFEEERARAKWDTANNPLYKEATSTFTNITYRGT

Substance | inhibition of function in αvβ3-dependent assay [1] | inhibition of binding of Jurkat cells to fibronectin coated plates [2] | inhibition of function in αIIbβ IIIa-dependent assay [3] | inhibition of leukocyte cell adhesion to fibronectin [4] | inhibition of binding to the 120 kDa chymotryptic fragment of fibronectin [5]
1-adamantaneacetyl-Cys-Gly-Arg-Gly-Asp-Ser-Pro-Cys ({Acetyl(1-adamantyl)}-CGRGDSPC; disulfide 1-8 (inferred)) | inhibited function | inhibited the binding of Jurkat cells to fibronectin coated plates | inhibited function | – | –
Arg-Cys-Asp-thioproline-Cys | – | – | – | inhibitor of leukocyte cell adhesion to fibronectin | inhibited the binding to the 120 kDa chymotryptic fragment of fibronectin
